{
  "source": "patent US9113629B2",
  "about": "“4-amino-6-(4-substituted-phenyl)-picolinates and 6-amino-2-(4-substituted-phenyl)-pyrimidine-4-carboxylates and their use as herbicides” (DOW AGROSCIENCES LLC, priority 2013, dated 2015)",
  "key": {"[1]": {"test_system": "Key Broadleaf Weed and Crop Species", "assay": "Post-emergent Test II herbicidal activity (Table 5)", "assay_type": "in vivo", "conditions": "post-emergence, 336 h, post-emergent, 14 days after application; for pest or weed control at 70 g/ha: application rate 70 g ai/ha; for pest or weed control at 140 g/ha: application rate 140 g ai/ha", "method_in_brief": "(§1)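 Spray rates: a highest rate plus ½×, ¼×, ⅛×, 1/16×, all delivered at 187 L/ha to plants at the first–second true leaf stage. Readout is a visual percent injury score at 14 d, where 100 means complete kill.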"}, "[2]": {"test_system": "Key Grass and Sedge Weeds as well as Grass Crops", "assay": "Post-emergent Test II herbicidal activity (Table 6)", "assay_type": "in vivo", "conditions": "post-emergence, 336 h; for pest or weed control at 70 g/ha: application rate 70 g ai/ha; for pest or weed control at 140 g/ha: application rate 140 g ai/ha", "method_in_brief": "as §1"}, "[3]": {"conditions": "ABUTH: velvetleaf (Abutilon theophrasti), read-out: Visual Growth Reduction (%) 14 Days After Application, ABUTH"}, "[4]": {"conditions": "AMARE: redroot pigweed (Amaranthus retroflexus), read-out: Visual Growth Reduction (%) 14 Days After Application, AMARE"}, "[5]": {"conditions": "BRSNN: oilseed-rape, canola (Brassica napus), read-out: Visual Growth Reduction (%) 14 Days After Application, BRSNN"}, "[6]": {"conditions": "CHEAL: lambsquarters (Chenopodium album), read-out: Visual Growth Reduction (%) 14 Days After Application, CHEAL"}, "[7]": {"conditions": "EPHHL: wild poinsettia (Euphorbia heterophylla), read-out: Visual Growth Reduction (%) 14 Days After Application, EPHHL"}, "[8]": {"conditions": "HELAN: sunflower (Helianthus annuus), read-out: Visual Growth Reduction (%) 14 Days After Application, HELAN"}, "[9]": {"conditions": "VIOTR: wild pansy (Viola tricolor), read-out: Visual Growth Reduction (%) 14 Days After Application, VIOTR"}, "[10]": {"conditions": "CYPES: yellow nutsedge (Cyperus esculentus), read-out: Visual Growth Reduction (%) 14 Days After Application, CYPES"}, "[11]": {"conditions": "DIGSA: crabgrass (Digitaria sanguinalis), read-out: Visual Growth Reduction (%) 14 Days After Application, DIGSA"}, "[12]": {"conditions": "ECHCG: barnyardgrass (Echinochloa crus-galli), read-out: Visual Growth Reduction (%) 14 Days After Application, ECHCG"}, "[13]": {"conditions": "ORYSA: rice (Oryza sativa), read-out: Visual Growth Reduction (%) 14 Days After Application, ORYSA"}, "[14]": {"conditions": "SETFA: giant foxtail (Setaria faberi), read-out: Visual Growth Reduction (%) 14 Days After Application, SETFA"}, "[15]": {"conditions": "SORVU: grain sorghum (Sorghum vulgare), read-out: Visual Growth Reduction (%) 14 Days After Application, SORVU"}, "[16]": {"conditions": "TRZSS (wheat, Triticum aestivum), read-out: Visual Growth Reduction (%) 14 Days After Application, TRZSS"}, "[17]": {"conditions": "ZEAMX: maize, corn (Zea mays), read-out: Visual Growth Reduction (%) 14 Days After Application, ZEAMX"}},
  "note": "Like-named read-outs stand apart in the source and are kept apart here.",
  "data": [
    {"compound": "Nc1cc(-c2cc(F)c(C(F)F)cc2F)nc(C(=O)O)c1Cl", "note": "[Compound 174]", "values": [
      {"measurement": "pest or weed control at 70 g/ha", "setting": "[1]; [3]", "value": "75 to 84", "unit": "%"},
      {"measurement": "pest or weed control at 140 g/ha", "setting": "[1]; [3]", "value": "75 to 84", "unit": "%"},
      {"measurement": "pest or weed control at 70 g/ha", "setting": "[1]; [4]", "value": "95 to 100", "unit": "%"},
      {"measurement": "pest or weed control at 140 g/ha", "setting": "[1]; [4]", "value": "95 to 100", "unit": "%"},
      {"measurement": "pest or weed control at 70 g/ha", "setting": "[1]; [5]", "value": "95 to 100", "unit": "%"},
      {"measurement": "pest or weed control at 140 g/ha", "setting": "[1]; [5]", "value": "95 to 100", "unit": "%"},
      {"measurement": "pest or weed control at 70 g/ha", "setting": "[1]; [6]", "value": "95 to 100", "unit": "%"},
      {"measurement": "pest or weed control at 140 g/ha", "setting": "[1]; [6]", "value": "95 to 100", "unit": "%"},
      {"measurement": "pest or weed control at 70 g/ha", "setting": "[1]; [7]", "value": "95 to 100", "unit": "%"},
      {"measurement": "pest or weed control at 140 g/ha", "setting": "[1]; [7]", "value": "95 to 100", "unit": "%"},
      {"measurement": "pest or weed control at 70 g/ha", "setting": "[1]; [8]", "value": "95 to 100", "unit": "%"},
      {"measurement": "pest or weed control at 140 g/ha", "setting": "[1]; [8]", "value": "95 to 100", "unit": "%"},
      {"measurement": "pest or weed control at 70 g/ha", "setting": "[1]; [9]", "value": "45 to 59", "unit": "%"},
      {"measurement": "pest or weed control at 140 g/ha", "setting": "[1]; [9]", "value": "60 to 74", "unit": "%"},
      {"measurement": "pest or weed control at 70 g/ha", "setting": "[2]; [10]", "value": "60 to 74", "unit": "%"},
      {"measurement": "pest or weed control at 140 g/ha", "setting": "[2]; [10]", "value": "85 to 94", "unit": "%"},
      {"measurement": "pest or weed control at 70 g/ha", "setting": "[2]; [11]", "value": "0 to 29", "unit": "%"},
      {"measurement": "pest or weed control at 140 g/ha", "setting": "[2]; [11]", "value": "45 to 59", "unit": "%"},
      {"measurement": "pest or weed control at 70 g/ha", "setting": "[2]; [12]", "value": "60 to 74", "unit": "%"},
      {"measurement": "pest or weed control at 140 g/ha", "setting": "[2]; [12]", "value": "85 to 94", "unit": "%"},
      {"measurement": "pest or weed control at 70 g/ha", "setting": "[2]; [13]", "value": "0 to 29", "unit": "%"},
      {"measurement": "pest or weed control at 140 g/ha", "setting": "[2]; [13]", "value": "0 to 29", "unit": "%"},
      {"measurement": "pest or weed control at 70 g/ha", "setting": "[2]; [14]", "value": "0 to 29", "unit": "%"},
      {"measurement": "pest or weed control at 140 g/ha", "setting": "[2]; [14]", "value": "45 to 59", "unit": "%"},
      {"measurement": "pest or weed control at 70 g/ha", "setting": "[2]; [15]", "value": "0 to 29", "unit": "%"},
      {"measurement": "pest or weed control at 140 g/ha", "setting": "[2]; [15]", "value": "0 to 29", "unit": "%"},
      {"measurement": "pest or weed control at 70 g/ha", "setting": "[2]; [16]", "value": "0 to 29", "unit": "%"},
      {"measurement": "pest or weed control at 140 g/ha", "setting": "[2]; [16]", "value": "0 to 29", "unit": "%"},
      {"measurement": "pest or weed control at 70 g/ha", "setting": "[2]; [17]", "value": "0 to 29", "unit": "%"},
      {"measurement": "pest or weed control at 140 g/ha", "setting": "[2]; [17]", "value": "0 to 29", "unit": "%"},
      {"measurement": "melting point", "value": "171.8 to 173.9", "unit": "°C"}
    ]}
  ]
}
